Reference: patent US9028856B2, “Synergistic pesticide compositions” (priority 2008, dated 2015)

Tests used:
spiders = assay: Spider control field trial on structures (spider counts in treated and untreated plots); format: in vivo; settings: imidacloprid ca. 22 mg AI per sq. m; deltamethrin ca. 12 mg AI per sq. m
From the text: Replicated plots (e.g., 1 meter sq. or as site dictates) were defined for treatment and observations. All living spiders in this area were counted, and the trial was begun by sweeping down all webbing, being careful not to harm the resident spiders in the process. The combinations were applied in the very sites formerly occupied by the spiders. The sites were re-visited intermittently, and total number of spiders in treated and untreated plots were counted. The evaluations were continued until the control failed, or as long as was practical. All formulations were diluted in water before treatment. All imidacloprid treatments were applied to the plots at the same rate of ca. 22 mg AI per sq. m. of surface area; deltamethrin was applied at the label rate of ca. 12 mg AI per sq. m. of surface area and served as a positive control. All treatments were replicated in three plots.

[1] = system: German cockroach (Blattella germanica); assay: Contact efficacy against cockroaches on filter papers in glass dishes; format: in vivo
From the text: The objective of this study was to evaluate differences between deltamethrin and imidacloprid with and without adjuvant against cockroaches. The method for determining contact efficacy against cockroaches was the same as that in Example 107.

Aedes aegypti mosquito = assay: USDA Petri Dish Method, 3 min exposure to dipped fiberglass window screen; format: in vivo
Description: MATERIALS AND METHODS: Aqueous solutions of 1% deltamethrin with and without an adjuvant composition, which is sold under the tradename Suspend® SC. […] Pre-cut fiberglass screen (5″×5″, or 161.3 cm^2) were dipped in each treatment solution and excessive solution was allowed to drain completely (see FIG. 23 a). Weight of the solution coated on the screen was then determined. The treated screen was then allowed to air-dry overnight. USDA Petri Dish Method was used as initial screening protocol (see FIG. 23 b). Twenty, 4-6 day old female Aedes aegypti were exposed to treated window screen for 3 minutes and then moved onto a clean untreated white paper index card. Treatments were replicated a minimum of three times. Mosquito knockdown was evaluated at 3 minute intervals for the first 15 minutes and then at 5 minute intervals for the remainder of an hour. A small cotton ball with sucrose solution was added on the screen top of the Petri dish as a drinking source. Mortality was evaluated at 24 hours after exposure.
MATERIALS AND METHODS: Several rates of permethrin without adjuvant were prepared using product sold under the tradename Permanone® 40 to determine an effective rate against Aedes aegypti mosquitoes. After determining an effective rate range, aqueous solutions of permethrin at 1.25, 1.0 and 0.05% AI were prepared with and without adjuvant. […] Pre-cut fiberglass screens (5″×5″ or 161.3 cm^2) were dipped in each treatment solution allowing excessive solution to drain completely. Weight of the solution coated on the screen was then determined. The treated screen was then allowed to air-dry overnight. USDA Petri Dish Method was used as initial screening protocol (see photo, right). Twenty, 4-6 day old female Aedes aegypti were exposed to treated window screen for 3 minutes and then moved to a clean untreated white paper index card. Treatments were replicated a minimum of three times. Mosquito knockdown was evaluated at 3 minute intervals for the first 15 minutes and then at 5 minute intervals for the remainder of an hour. A small cotton ball with sucrose solution was added on the screen top of the petri-dish as a drinking source. Mortality was evaluated at 24 hours after exposure.

[2] = system: ants (persistent ant trails); assay: Ant control field trial (ant trail counts after barrier spray); format: in vivo
From the text: The purpose of this example was to consider whether combinations of imidacloprid and adjuvant, believed acting as free radical stabilizers, is effective at controlling ant populations. The general methodology used in this analysis first involved locating a site with persistent ant trails; e.g., trails over surfaces of buildings, at structural guidelines (expansion joints, utility lines, and the like), or points where ants emerge from beneath or behind a structural element. A point of observation was fixed along the trail or point of emergence as the individual plot(s) for observations of the effects of treatment on ant activity. The near environment (structural substrate, mulch beds, ground, and the like) was sprayed to form a continuous barrier that intercepts the trailing ants in a barrier ca. 2 ft up and 2 ft out from foundation wall, and extending 2 to 3 feet on either side of the ant trail. After treatment, the observers returned to observe ant activity and count ant traffic at intervals after treatment. The evaluations were continued until the control failed, or as long as was practical. All formulations were diluted in water before treatment. Application rates, in terms of mg AI per sq. m., were as indicated in the tables. deltamethrin served as a positive control. All treatments were replicated in four plots.

[3] = octanol-water partition coefficient (Log K ow), Table 1; cited from earlier work
[4] = system: housefly, Musca domestica; assay: Housefly continuous exposure on treated glazed tile (paper cup arena); format: in vivo
From the text: Treatments were allowed to dry overnight. The housefly testing arena consisted of a 16 oz. paper cup where the bottom of the cup was removed and replaced with a piece of standard window screen. Ten adult houseflies (mixed ratio) were placed in each cup and covered with a 4″×5″ index card to prevent escape. Houseflies were continuously exposed to the treatment by inverting the testing arena and sliding the cup from the index card to the treated tile surface. Treatments were replicated a minimum of three times.

[5] = 0.00032% Deltamethrin in acetone
[6] = 0.0016% Deltamethrin in acetone

CC1(C)[C@H](C(=O)O[C@H](C#N)c2cccc(Oc3ccccc3)c2)[C@@H]1C=C(Br)Br [deltamethrin]
suppression of spider populations relative to the untreated control (cross trial average) (spiders): 83.4%
% Mortality after 15′ [1, 5]: 0%
% Mortality after 30′ [1, 5]: 0%
% Mortality after 1 h [1, 5]: 0%
% Mortality after 2 h [1, 5]: 20%
% Mortality after 4 h [1, 5]: 20%
% Mortality after 6 h [1, 5]: 20%
% Mortality after 1 d [1, 5]: 100%
% Mortality after 15′ [1, 6]: 40%
% Mortality after 30′ [1, 6]: 60%
% Mortality after 1 h [1, 6]: 80%
% Mortality after 2 h [1, 6]: 100%
% Mortality after 4 h [1, 6]: 100%
% Mortality after 6 h [1, 6]: 100%
% Mortality after 1 d [1, 6]: 100%
mortality at 24 hours after exposure (Aedes aegypti mosquito; 1% deltamethrin alone, treated screen): 100%
efficacy of the substance alone (summary in words) (Aedes aegypti mosquito; Aedes aegypti, treated window screen): good knockdown
reduction in ant activity, cross-trial average (relative to pretreatment counts) [2]: 57.9%

CC1(C)[C@H](C(=O)O[C@H](C#N)c2cccc(Oc3ccccc3)c2)[C@@H]1C=C(Br)Br [deltamethrin (1%)]
Average % Knockdown & Mortality after 3 min (Aedes aegypti mosquito; 3 min, Table 26, aqueous deltamethrin/adjuvant, dipped screen, 3 min exposure): 0%
Average % Knockdown & Mortality after 9 min (Aedes aegypti mosquito; 9 min, Table 26, aqueous deltamethrin/adjuvant, dipped screen, 3 min exposure): 0%
Average % Knockdown & Mortality after 15 min (Aedes aegypti mosquito; 15 min, Table 26, aqueous deltamethrin/adjuvant, dipped screen, 3 min exposure): 0%
Average % Knockdown & Mortality after 30 min (Aedes aegypti mosquito; 30 min, Table 26, aqueous deltamethrin/adjuvant, dipped screen, 3 min exposure): 27%
Average % Knockdown & Mortality after 60 min (Aedes aegypti mosquito; 60 min, Table 26, aqueous deltamethrin/adjuvant, dipped screen, 3 min exposure): 84%
Average % Knockdown & Mortality after 24 hr (Aedes aegypti mosquito; 24 hr, Table 26, aqueous deltamethrin/adjuvant, dipped screen, 3 min exposure): 100%

CNC(=O)Oc1cccc2c1OC(C)(C)O2 [bendiocarb]
Log P [3]: 1.7

O=[N+]([O-])NC1=NCCN1Cc1ccc(Cl)nc1 [imidacloprid]
suppression of spider populations relative to the untreated control (cross trial average) (spiders): around 24.5%
% Mortality after 15′ ([1]; 0.04% Imidacloprid in acetone): 0%
% Mortality after 30′ ([1]; 0.04% Imidacloprid in acetone): 0%
% Mortality after 1 h ([1]; 0.04% Imidacloprid in acetone): 0%
% Mortality after 2 h ([1]; 0.04% Imidacloprid in acetone): 0%
% Mortality after 4 h ([1]; 0.04% Imidacloprid in acetone): 0%
% Mortality after 6 h ([1]; 0.04% Imidacloprid in acetone): 0%
% Mortality after 1 d ([1]; 0.04% Imidacloprid in acetone): 0%
% Mortality after 15′ ([1]; 0.2% Imidacloprid in acetone): 0%
% Mortality after 30′ ([1]; 0.2% Imidacloprid in acetone): 0%
% Mortality after 1 h ([1]; 0.2% Imidacloprid in acetone): 0%
% Mortality after 2 h ([1]; 0.2% Imidacloprid in acetone): 0%
% Mortality after 4 h ([1]; 0.2% Imidacloprid in acetone): 0%
% Mortality after 6 h ([1]; 0.2% Imidacloprid in acetone): 0%
% Mortality after 1 d ([1]; 0.2% Imidacloprid in acetone): 0%
efficacy with adjuvant compared with insecticide alone (summary in words) ([1]; filter papers in glass dishes): no mortality was observed, with or without adjuvant
reduction in ant activity, cross-trial average (relative to pretreatment counts) [2]: 34.1%

CC[S+]([O-])c1c(C#N)nn(-c2c(Cl)cc(C(F)(F)F)cc2Cl)c1N (stereo not shown) [Ethiprole (1%)]
Average % Knockdown & Mortality after 3 hr ([4]; Table 58, housefly, glazed tile, continuous exposure, 3 hr): 0%
Average % Knockdown & Mortality after 5 hr ([4]; Table 58, housefly, glazed tile, continuous exposure, 5 hr): 0%
Average % Knockdown & Mortality after 7 hr ([4]; Table 58, housefly, glazed tile, continuous exposure, 7 hr): 3%
Average % Knockdown & Mortality after 24 hr ([4]; Table 58, housefly, glazed tile, continuous exposure, 24 hr): 97%
Average % Knockdown & Mortality after 1 hr ([4]; Table 58, housefly, glazed tile, continuous exposure, adjuvant = Compound A 1% + Compound B 0.5%, 1 hr): 0%

CC[S+]([O-])c1c(C#N)nn(-c2c(Cl)cc(C(F)(F)F)cc2Cl)c1N (stereo not shown) [ethiprole]
mortality after about 6 hours ([4]; ethiprole 0.01% with or without adjuvant (FIG. 52)): about 6%
Log P [3]: 2.90
